“Also recorded” adds a separate entry of the source. Where no end group is shown, it is not given here.
Tests used:
NKG2A−/NKG2C− NK cells = test: NK cell activation markers in control NKG2A-/NKG2C- NK cells incubated with peptide and K562 expressing HLA-E; type: cell-based, human
In short: (§1)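 HLA-E-expressing K562 cells incubated with peptides from human or human cytomegalovirus proteomes, then with NK cell subsets sorted by NKG2A/NKG2C status. Read-out is percent of cells positive for surface markers; a rise indicates activation, a fall inhibition.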

NKG2A−/NKG2C+ NK cells [1] = test: NKG2A-/NKG2C+ NK cell activation with peptide and RMA-S cells expressing HLA-E; type: cell-based; settings: RMA-S cells expressing HLA-E
In short: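 RMA-S cells with low HLA-E expression were loaded with peptides and tested against NKG2A−/NKG2C+ NK cells, with two reference peptide sequences as controls. Activation read as percent cells positive for CD107a, IFNG, TNF and CCL3.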

HLA-E = molecular target: T1, HLA-E (Homo sapiens, UniProt P13747); test: HLA-E surface stabilization assay with RMA-S/HLA-E cells; type: cell-based; settings: 30 μM peptide, 16 hours; for HLA-E surface expression stability (GeoMFI): anti-HLA-E antibody
T1 construct: expressed in transfected cells; host or cells: RMA-S/HLA-E cells (antigen processing-defective lymphoma cell line)
T1 sequence (P13747 22-358): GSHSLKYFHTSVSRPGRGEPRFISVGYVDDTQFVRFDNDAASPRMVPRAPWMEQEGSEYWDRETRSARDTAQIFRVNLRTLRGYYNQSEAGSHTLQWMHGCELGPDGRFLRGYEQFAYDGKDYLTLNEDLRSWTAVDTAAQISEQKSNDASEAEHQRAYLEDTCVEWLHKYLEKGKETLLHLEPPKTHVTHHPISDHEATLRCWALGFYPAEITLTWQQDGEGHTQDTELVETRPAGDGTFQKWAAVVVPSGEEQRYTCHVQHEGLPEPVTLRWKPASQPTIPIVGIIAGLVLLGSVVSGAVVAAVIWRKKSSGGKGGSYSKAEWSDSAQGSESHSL
T1 sequence (P61769 21-119 partner): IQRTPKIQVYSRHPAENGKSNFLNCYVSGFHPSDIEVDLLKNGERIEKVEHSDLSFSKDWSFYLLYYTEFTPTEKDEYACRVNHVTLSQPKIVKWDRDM
Description: HLA-E surface expression was assessed by measuring geometric mean fluorescence intensity (GeoMFI) in RMA-S cells following immunofluorescence staining with an anti-HLA-E antibody (Table 14). Increased GeoMFI was indicative of increased HLA-E surface expression stability following novel peptide exposures (FIG. 3).

NKG2A+/NKG2C− NK cells = test: NK cell activation markers in NKG2A+/NKG2C- NK cells incubated with peptide and K562 expressing HLA-E (inhibition); type: cell-based, human; settings: for effect on NKG2A+/NKG2C− NK cell inhibition (in words): K562 expressing HLA-E, CD107a, IFNG, TNF, CCL3; for percentage of CCL3+ NK cells / percentage of CD107a+ NK cells / percentage of IFNG+ NK cells / percentage of TNF+ NK cells: NKG2A+/NKG2C- NK cells, K562/HLA-E
In short: as §1

NKG2A−/NKG2C+ NK cells [2] = test: NK cell activation markers in NKG2A-/NKG2C+ NK cells incubated with peptide and K562 expressing HLA-E (activation); type: cell-based, human; settings: for effect on NKG2A−/NKG2C+ NK cell activation (in words): K562 expressing HLA-E, CD107a, IFNG, TNF, CCL3; for percentage of CCL3+ NK cells / percentage of CD107+ NK cells / percentage of IFNG+ NK cells / percentage of TNF+ NK cells: NKG2A-/NKG2C+ NK cells, K562/HLA-E
In short: as §1

VNPGRSLFL [human5, VNPGRSLFL]
percentage CCL3+ NK cells (NKG2A−/NKG2C− NK cells; Trial 1): 33% | percentage CD107+ NK cells (NKG2A−/NKG2C− NK cells; Trial 1): 26.5% | percentage TNF+ NK cells (NKG2A−/NKG2C− NK cells; Trial 1): 4.11% | percentage of IFNG+ NK cells (NKG2A−/NKG2C− NK cells; Trial 1): 14.6% | percentage CCL3+ NK cells (NKG2A−/NKG2C− NK cells; Trial 2): 55.5% | percentage CD107+ NK cells (NKG2A−/NKG2C− NK cells; Trial 2): 32.5% | percentage TNF+ NK cells (NKG2A−/NKG2C− NK cells; Trial 2): 10.4% | percentage of IFNG+ NK cells (NKG2A−/NKG2C− NK cells; Trial 2): 26.3% | percentage CCL3+ NK cells (NKG2A−/NKG2C− NK cells; Trial 3): 53.4% | percentage CD107+ NK cells (NKG2A−/NKG2C− NK cells; Trial 3): 48.1% | percentage TNF+ NK cells (NKG2A−/NKG2C− NK cells; Trial 3): 18% | percentage of IFNG+ NK cells (NKG2A−/NKG2C− NK cells; Trial 3): 41.4% | percentage CCL3+ NK cells (NKG2A−/NKG2C− NK cells; Trial 4): 30.6% | percentage CD107+ NK cells (NKG2A−/NKG2C− NK cells; Trial 4): 27.8% | percentage TNF+ NK cells (NKG2A−/NKG2C− NK cells; Trial 4): 9.09% | percentage of IFNG+ NK cells (NKG2A−/NKG2C− NK cells; Trial 4): 18.7% | percentage CCL3+ NK cells (NKG2A−/NKG2C− NK cells; Trial 5): 23.5% | percentage CD107+ NK cells (NKG2A−/NKG2C− NK cells; Trial 5): 19% | percentage TNF+ NK cells (NKG2A−/NKG2C− NK cells; Trial 5): 6.08% | percentage of IFNG+ NK cells (NKG2A−/NKG2C− NK cells; Trial 5): 14.6% | percentage CCL3+ NK cells (NKG2A−/NKG2C− NK cells; Trial 6): 22% | percentage CD107+ NK cells (NKG2A−/NKG2C− NK cells; Trial 6): 20.1% | percentage TNF+ NK cells (NKG2A−/NKG2C− NK cells; Trial 6): 4.34% | percentage of IFNG+ NK cells (NKG2A−/NKG2C− NK cells; Trial 6): 10.7% | NKG2A−/NKG2C+ NK cell activation relative to positive control peptides (in words) (NKG2A−/NKG2C+ NK cells [1]; listed as SEQ ID NO. 3): strongest activation of NK cells, comparable with the positive control peptides for several markers assessed | NKG2A−/NKG2C+ NK cell activation relative to positive control peptides (in words) (NKG2A−/NKG2C+ NK cells [1]; listed as h5): strongest NK cell activation, comparable with the positive control peptides for several markers assessed | HLA-E surface expression stability (GeoMFI) (HLA-E; Trial 1): 569 GeoMFI | HLA-E surface expression stability (GeoMFI) (HLA-E; Trial 2): 509 GeoMFI | HLA-E surface expression stability (GeoMFI) (HLA-E; Trial 3): 566 GeoMFI | HLA-E surface expression stability (GeoMFI) (HLA-E; Trial 4): 750 GeoMFI | HLA-E surface expression stabilization strength (in words) (HLA-E; listed as BFAR263-271): closest to the experimental negative control (DMSO); also recorded: lowest | effect on NKG2A+/NKG2C− NK cell inhibition (in words) (NKG2A+/NKG2C− NK cells; listed as SEQ ID NO. 3): no or minimal effect | effect on NKG2A+/NKG2C− NK cell inhibition (in words) (NKG2A+/NKG2C− NK cells; listed as h5): no effect | percentage of CCL3+ NK cells (NKG2A+/NKG2C− NK cells; Trial 1): 51.6% | percentage of CD107a+ NK cells (NKG2A+/NKG2C− NK cells; Trial 1): 36.8% | percentage of IFNG+ NK cells (NKG2A+/NKG2C− NK cells; Trial 1): 16.9% | percentage of TNF+ NK cells (NKG2A+/NKG2C− NK cells; Trial 1): 7.26% | percentage of CCL3+ NK cells (NKG2A+/NKG2C− NK cells; Trial 2): 71.6% | percentage of CD107a+ NK cells (NKG2A+/NKG2C− NK cells; Trial 2): 48.4% | percentage of IFNG+ NK cells (NKG2A+/NKG2C− NK cells; Trial 2): 28.8% | percentage of TNF+ NK cells (NKG2A+/NKG2C− NK cells; Trial 2): 14.6% | percentage of CCL3+ NK cells (NKG2A+/NKG2C− NK cells; Trial 3): 55.3% | percentage of CD107a+ NK cells (NKG2A+/NKG2C− NK cells; Trial 3): 43.1% | percentage of IFNG+ NK cells (NKG2A+/NKG2C− NK cells; Trial 3): 30.8% | percentage of TNF+ NK cells (NKG2A+/NKG2C− NK cells; Trial 3): 19.4% | percentage of CCL3+ NK cells (NKG2A+/NKG2C− NK cells; Trial 4): 40.9% | percentage of CD107a+ NK cells (NKG2A+/NKG2C− NK cells; Trial 4): 33.4% | percentage of IFNG+ NK cells (NKG2A+/NKG2C− NK cells; Trial 4): 17.9% | percentage of TNF+ NK cells (NKG2A+/NKG2C− NK cells; Trial 4): 10.7% | percentage of CCL3+ NK cells (NKG2A+/NKG2C− NK cells; Trial 5): 44.2% | percentage of CD107a+ NK cells (NKG2A+/NKG2C− NK cells; Trial 5): 30.4% | percentage of IFNG+ NK cells (NKG2A+/NKG2C− NK cells; Trial 5): 16.5% | percentage of TNF+ NK cells (NKG2A+/NKG2C− NK cells; Trial 5): 7.74% | percentage of CCL3+ NK cells (NKG2A+/NKG2C− NK cells; Trial 6): 33.1% | percentage of CD107a+ NK cells (NKG2A+/NKG2C− NK cells; Trial 6): 26% | percentage of IFNG+ NK cells (NKG2A+/NKG2C− NK cells; Trial 6): 10.5% | percentage of TNF+ NK cells (NKG2A+/NKG2C− NK cells; Trial 6): 6.36% | effect on NKG2A−/NKG2C+ NK cell activation (in words) (NKG2A−/NKG2C+ NK cells [2]; listed as SEQ ID NO. 3): activate | effect on NKG2A−/NKG2C+ NK cell activation (in words) (NKG2A−/NKG2C+ NK cells [2]; listed as h5): activated | percentage of CCL3+ NK cells (NKG2A−/NKG2C+ NK cells [2]; Trial 1): 60.9% | percentage of CD107+ NK cells (NKG2A−/NKG2C+ NK cells [2]; Trial 1): 59.7% | percentage of IFNG+ NK cells (NKG2A−/NKG2C+ NK cells [2]; Trial 1): 35.3% | percentage of TNF+ NK cells (NKG2A−/NKG2C+ NK cells [2]; Trial 1): 17.4% | percentage of CCL3+ NK cells (NKG2A−/NKG2C+ NK cells [2]; Trial 2): 74.5% | percentage of CD107+ NK cells (NKG2A−/NKG2C+ NK cells [2]; Trial 2): 61.8% | percentage of IFNG+ NK cells (NKG2A−/NKG2C+ NK cells [2]; Trial 2): 43.2% | percentage of TNF+ NK cells (NKG2A−/NKG2C+ NK cells [2]; Trial 2): 23.9% | percentage of CCL3+ NK cells (NKG2A−/NKG2C+ NK cells [2]; Trial 3): 72.5% | percentage of CD107+ NK cells (NKG2A−/NKG2C+ NK cells [2]; Trial 3): 72.6% | percentage of IFNG+ NK cells (NKG2A−/NKG2C+ NK cells [2]; Trial 3): 57.2% | percentage of TNF+ NK cells (NKG2A−/NKG2C+ NK cells [2]; Trial 3): 42.2% | percentage of CCL3+ NK cells (NKG2A−/NKG2C+ NK cells [2]; Trial 4): 63.8% | percentage of CD107+ NK cells (NKG2A−/NKG2C+ NK cells [2]; Trial 4): 64.3% | percentage of IFNG+ NK cells (NKG2A−/NKG2C+ NK cells [2]; Trial 4): 51.1% | percentage of TNF+ NK cells (NKG2A−/NKG2C+ NK cells [2]; Trial 4): 36% | percentage of CCL3+ NK cells (NKG2A−/NKG2C+ NK cells [2]; Trial 5): 69.7% | percentage of CD107+ NK cells (NKG2A−/NKG2C+ NK cells [2]; Trial 5): 67.6% | percentage of IFNG+ NK cells (NKG2A−/NKG2C+ NK cells [2]; Trial 5): 53.4% | percentage of TNF+ NK cells (NKG2A−/NKG2C+ NK cells [2]; Trial 5): 40.4% | percentage of CCL3+ NK cells (NKG2A−/NKG2C+ NK cells [2]; Trial 6): 47.2% | percentage of CD107+ NK cells (NKG2A−/NKG2C+ NK cells [2]; Trial 6): 46.8% | percentage of IFNG+ NK cells (NKG2A−/NKG2C+ NK cells [2]; Trial 6): 28.6% | percentage of TNF+ NK cells (NKG2A−/NKG2C+ NK cells [2]; Trial 6): 15%

— patent US20240092835A1, “NOVEL PEPTIDES CAPABLE OF ALTERING NK CELL ACTIVITY” (Massachusetts Institute of Technology, priority 2022, published 2024)
